Test results from US20230085307A1, “PYRIDAZINONE COMPOUND AND HERBICIDE” (NISSAN CHEMICAL CORPORATION, priority 2019, published 2023).

How the values were obtained:
[1] = system: velvetleaf; assay: Test Example 5: herbicidal effect by foliage application, plastic box (Table 20, symbol M); type: in vivo, velvetleaf (Abutilon theophrasti); conditions: foliage application, AAH 320 g/ha, three weeks after application
Method in brief: (§1)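 Post-emergence foliar test in sterilized diluvial soil. Compound applied as water-diluted emulsion at a predetermined rate to 14-day-old plants; evaluation at three weeks.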

[2] = system: blackgrass; assay: Test Example 4: herbicidal effect by soil treatment (Table 19, symbol J); type: in vivo, blackgrass (Alopecurus myosuroides); conditions: AAH 320 g/ha
Method in brief: (§2)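 Scoring uses the grading scale of an earlier test, three weeks post-application. Treatment consists of spraying a diluted emulsion formulation across the surface of sterilized diluvial soil in which seeds are buried near 1.5 cm deep; boxes are kept in a greenhouse between 25° C. and 30° C.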

[3] = system: velvetleaf; assay: Test Example 4: herbicidal effect by soil treatment (Table 19, symbol M); type: in vivo, velvetleaf (Abutilon theophrasti); conditions: AAH 320 g/ha
Method in brief: as §2

[4] = system: redroot pigweed; assay: Test Example 4: herbicidal effect by soil treatment (Table 19, symbol N); type: in vivo, redroot pigweed (Amaranthus retroflexus); conditions: AAH 320 g/ha
Method in brief: as §2

[5] = system: chickweed; assay: Test Example 5: herbicidal effect by foliage application, plastic box (Table 20, symbol P); type: in vivo, common chickweed (Stellaria media); conditions: foliage application, AAH 320 g/ha, three weeks after application
Method in brief: as §1

[6] = system: green foxtail; assay: Test Example 4: herbicidal effect by soil treatment (Table 19, symbol G); type: in vivo, green foxtail (Setaria viridis); conditions: AAH 320 g/ha
Method in brief: as §2

[7] = system: lambsquarters; assay: Test Example 5: herbicidal effect by foliage application, plastic box (Table 20, symbol O); type: in vivo, lambsquarters (Chenopodium album); conditions: foliage application, AAH 320 g/ha, three weeks after application
Method in brief: as §1

[8] = system: blackgrass; assay: Test Example 5: herbicidal effect by foliage application, plastic box (Table 20, symbol J); type: in vivo, blackgrass (Alopecurus myosuroides); conditions: foliage application, AAH 320 g/ha, three weeks after application
Method in brief: as §1

[9] = system: redroot pigweed; assay: Test Example 5: herbicidal effect by foliage application, plastic box (Table 20, symbol N); type: in vivo, redroot pigweed (Amaranthus retroflexus); conditions: foliage application, AAH 320 g/ha, three weeks after application
Method in brief: as §1

[10] = system: persian speedwell; assay: Test Example 4: herbicidal effect by soil treatment (Table 19, symbol R); type: in vivo, Persian speedwell (Veronica persica); conditions: AAH 320 g/ha
Method in brief: as §2

[11] = system: lambsquarters; assay: Test Example 4: herbicidal effect by soil treatment (Table 19, symbol O); type: in vivo, lambsquarters (Chenopodium album); conditions: AAH 320 g/ha
Method in brief: as §2

[12] = system: barnyard grass; assay: Test Example 3: herbicidal effect by foliage application, Wagner pot (Table 18, symbol H); type: in vivo, barnyard grass (Echinochloa crus-galli); conditions: 320 g/ha
Method in brief: (§3)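 Plants were sown in alluvial soil held under 0.1–0.5 cm standing water and grown 14 days in a greenhouse at 25–30 °C. An emulsifiable formulation, water-diluted to the set dose, was then sprayed onto the foliage, and effects were scored three weeks later using previously defined criteria.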

[13] = system: chickweed; assay: Test Example 4: herbicidal effect by soil treatment (Table 19, symbol P); type: in vivo, common chickweed (Stellaria media); conditions: AAH 320 g/ha
Method in brief: as §2

[14] = system: windgrass; assay: Test Example 4: herbicidal effect by soil treatment (Table 19, symbol L); type: in vivo, windgrass (Apera spica-venti); conditions: AAH 320 g/ha
Method in brief: as §2

[15] = system: wild oat; assay: Test Example 5: herbicidal effect by foliage application, plastic box (Table 20, symbol I); type: in vivo, wild oat (Avena fatua); conditions: foliage application, AAH 320 g/ha, three weeks after application
Method in brief: as §1

[16] = system: green foxtail; assay: Test Example 5: herbicidal effect by foliage application, plastic box (Table 20, symbol G); type: in vivo, green foxtail (Setaria viridis); conditions: foliage application, AAH 320 g/ha, three weeks after application
Method in brief: as §1

[17] = system: persian speedwell; assay: Test Example 5: herbicidal effect by foliage application, plastic box (Table 20, symbol R); type: in vivo, Persian speedwell (Veronica persica); conditions: foliage application, AAH 320 g/ha, three weeks after application
Method in brief: as §1

[18] = system: Italian ryegrass; assay: Test Example 4: herbicidal effect by soil treatment (Table 19, symbol K); type: in vivo, Italian ryegrass (Lolium multiflorum); conditions: AAH 320 g/ha
Method in brief: as §2

[19] = system: barnyard grass; assay: Test Example 4: herbicidal effect by soil treatment (Table 19, symbol H); type: in vivo, barnyard grass (Echinochloa crus-galli); conditions: AAH 320 g/ha
Method in brief: as §2

[20] = system: barnyard grass; assay: Test Example 5: herbicidal effect by foliage application, plastic box (Table 20, symbol H); type: in vivo, barnyard grass (Echinochloa crus-galli); conditions: foliage application, AAH 320 g/ha, three weeks after application
Method in brief: as §1

[21] = system: Chinese sprangletop; assay: Test Example 3: herbicidal effect by foliage application, Wagner pot (Table 18, symbol D); type: in vivo, chinese sprangletop (Leptochloa chinensis); conditions: 320 g/ha
Method in brief: as §3

[22] = system: rice flat sedge; assay: Test Example 3: herbicidal effect by foliage application, Wagner pot (Table 18, symbol E); type: in vivo, rice flat sedge (Cyperus iria); conditions: 320 g/ha
Method in brief: as §3

[23] = system: wild oat; assay: Test Example 4: herbicidal effect by soil treatment (Table 19, symbol I); type: in vivo, wild oat (Avena fatua); conditions: AAH 320 g/ha
Method in brief: as §2

[24] = system: Italian ryegrass; assay: Test Example 5: herbicidal effect by foliage application, plastic box (Table 20, symbol K); type: in vivo, Italian ryegrass (Lolium multiflorum); conditions: foliage application, AAH 320 g/ha, three weeks after application
Method in brief: as §1

[25] = system: southern crabgrass; assay: Test Example 4: herbicidal effect by soil treatment (Table 19, symbol F); type: in vivo, southern crabgrass (Digitaria ciliaris); conditions: AAH 320 g/ha
Method in brief: as §2

[26] = system: windgrass; assay: Test Example 5: herbicidal effect by foliage application, plastic box (Table 20, symbol L); type: in vivo, windgrass (Apera spica-venti); conditions: foliage application, AAH 320 g/ha, three weeks after application
Method in brief: as §1

[27] = system: southern crabgrass; assay: Test Example 5: herbicidal effect by foliage application, plastic box (Table 20, symbol F); type: in vivo, southern crabgrass (Digitaria ciliaris); conditions: foliage application, AAH 320 g/ha, three weeks after application
Method in brief: as §1

Structure (SMILES): COc1nn(C)c(=O)c(-c2c(-c3ccc(C#N)cc3)sc3ccccc23)c1O [1-170]
- M: velvetleaf, herbicidal effect [1]: 5 (Herbicidal rate of 90% or more (almost completely withered))
- J: blackgrass, herbicidal effect rating [2]: 0 (Herbicidal rate of 5% or less (almost no effect))
- M: velvetleaf, herbicidal effect rating [3]: 0 (Herbicidal rate of 5% or less (almost no effect))
- N: redroot pigweed, herbicidal effect rating [4]: 5 (Herbicidal rate of 90% or more (almost completely withered))
- P: chickweed, herbicidal effect [5]: 5 (Herbicidal rate of 90% or more (almost completely withered))
- G: green foxtail, herbicidal effect rating [6]: 0 (Herbicidal rate of 5% or less (almost no effect))
- O: lambsquarters, herbicidal effect [7]: 5 (Herbicidal rate of 90% or more (almost completely withered))
- J: blackgrass, herbicidal effect [8]: 0 (Herbicidal rate of 5% or less (almost no effect))
- N: redroot pigweed, herbicidal effect [9]: 5 (Herbicidal rate of 90% or more (almost completely withered))
- R: persian speedwell, herbicidal effect rating [10]: 5 (Herbicidal rate of 90% or more (almost completely withered))
- O: lambsquarters, herbicidal effect rating [11]: 0 (Herbicidal rate of 5% or less (almost no effect))
- herbicidal effect on H (barnyard grass), rating 0-5 [12]: 2 (Herbicidal rate of 20% or more and less than 40%)
- P: chickweed, herbicidal effect rating [13]: 4 (Herbicidal rate of 70% or more and less than 90%)
- L: windgrass, herbicidal effect rating [14]: 0 (Herbicidal rate of 5% or less (almost no effect))
- I: wild oat, herbicidal effect [15]: 2 (Herbicidal rate of 20% or more and less than 40%)
- G: green foxtail, herbicidal effect [16]: 5 (Herbicidal rate of 90% or more (almost completely withered))
- R: persian speedwell, herbicidal effect [17]: 5 (Herbicidal rate of 90% or more (almost completely withered))
- K: Italian ryegrass, herbicidal effect rating [18]: 0 (Herbicidal rate of 5% or less (almost no effect))
- H: barnyard grass, herbicidal effect rating [19]: 0 (Herbicidal rate of 5% or less (almost no effect))
- H: barnyard grass, herbicidal effect [20]: 4 (Herbicidal rate of 70% or more and less than 90%)
- herbicidal effect on D (Chinese sprangletop), rating 0-5 [21]: 1 (Herbicidal rate of 5% or more and less than 20%)
- herbicidal effect on E (rice flat sedge), rating 0-5 [22]: 5 (Herbicidal rate of 90% or more (almost completely withered))
- I: wild oat, herbicidal effect rating [23]: 0 (Herbicidal rate of 5% or less (almost no effect))
- K: Italian ryegrass, herbicidal effect [24]: 3 (Herbicidal rate of 40% or more and less than 70%)
- F: southern crabgrass, herbicidal effect rating [25]: 0 (Herbicidal rate of 5% or less (almost no effect))
- L: windgrass, herbicidal effect [26]: 0 (Herbicidal rate of 5% or less (almost no effect))
- F: southern crabgrass, herbicidal effect [27]: 3 (Herbicidal rate of 40% or more and less than 70%)

Structure (SMILES): CCCC(=O)Oc1c(OC)nn(C)c(=O)c1-c1c(-c2ccc(C#N)cc2)sc2ccccc12 [1-171]
- M: velvetleaf, herbicidal effect [1]: 4 (Herbicidal rate of 70% or more and less than 90%)
- J: blackgrass, herbicidal effect rating [2]: 0 (Herbicidal rate of 5% or less (almost no effect))
- M: velvetleaf, herbicidal effect rating [3]: 0 (Herbicidal rate of 5% or less (almost no effect))
- N: redroot pigweed, herbicidal effect rating [4]: 5 (Herbicidal rate of 90% or more (almost completely withered))
- P: chickweed, herbicidal effect [5]: 5 (Herbicidal rate of 90% or more (almost completely withered))
- G: green foxtail, herbicidal effect rating [6]: 0 (Herbicidal rate of 5% or less (almost no effect))
- O: lambsquarters, herbicidal effect [7]: 4 (Herbicidal rate of 70% or more and less than 90%)
- J: blackgrass, herbicidal effect [8]: 0 (Herbicidal rate of 5% or less (almost no effect))
- N: redroot pigweed, herbicidal effect [9]: 5 (Herbicidal rate of 90% or more (almost completely withered))
- R: persian speedwell, herbicidal effect rating [10]: 4 (Herbicidal rate of 70% or more and less than 90%)
- O: lambsquarters, herbicidal effect rating [11]: 3 (Herbicidal rate of 40% or more and less than 70%)
- herbicidal effect on H (barnyard grass), rating 0-5 [12]: 3 (Herbicidal rate of 40% or more and less than 70%)
- P: chickweed, herbicidal effect rating [13]: 5 (Herbicidal rate of 90% or more (almost completely withered))
- L: windgrass, herbicidal effect rating [14]: 0 (Herbicidal rate of 5% or less (almost no effect))
- I: wild oat, herbicidal effect [15]: 0 (Herbicidal rate of 5% or less (almost no effect))
- G: green foxtail, herbicidal effect [16]: 0 (Herbicidal rate of 5% or less (almost no effect))
- R: persian speedwell, herbicidal effect [17]: 4 (Herbicidal rate of 70% or more and less than 90%)
- K: Italian ryegrass, herbicidal effect rating [18]: 0 (Herbicidal rate of 5% or less (almost no effect))
- H: barnyard grass, herbicidal effect rating [19]: 0 (Herbicidal rate of 5% or less (almost no effect))
- H: barnyard grass, herbicidal effect [20]: 0 (Herbicidal rate of 5% or less (almost no effect))
- herbicidal effect on D (Chinese sprangletop), rating 0-5 [21]: 0 (Herbicidal rate of 5% or less (almost no effect))
- herbicidal effect on E (rice flat sedge), rating 0-5 [22]: 4 (Herbicidal rate of 70% or more and less than 90%)
- I: wild oat, herbicidal effect rating [23]: 0 (Herbicidal rate of 5% or less (almost no effect))
- K: Italian ryegrass, herbicidal effect [24]: 0 (Herbicidal rate of 5% or less (almost no effect))
- F: southern crabgrass, herbicidal effect rating [25]: 5 (Herbicidal rate of 90% or more (almost completely withered))
- L: windgrass, herbicidal effect [26]: 0 (Herbicidal rate of 5% or less (almost no effect))
- F: southern crabgrass, herbicidal effect [27]: 0 (Herbicidal rate of 5% or less (almost no effect))
